# Test results as given in patent US7863241B2, “Compositions for treatment and prevention of pulmonary conditions” (The Scripps Research Institute, priority 2002, dated 2011).
# “Also recorded” adds a separate entry of the source.
# Experiments:
# Phospholipase A2 (PLA2) = details: 30 min incubation, lavage fluid of rabbit 6015, increasing amounts of inhibitor
# Description: Terminal lavage fluid was collected from rabbits experiencing pulmonary injury initiated by the intratracheal administration of partially purified antibodies directed against BSA (anti-BSA antibodies). Palmitoyl, oleoyl phosphotidylglycerol (POPG, Avanti Polar Lipids) was added to the lavage fluid as a substrate for detecting PLA2 activity in the lavage fluid. Prior to addition of the POPG substrate, the mixture was adjusted to a final concentration of 10 mM CaCl2, 100 mM KCl and 25 mM Tris-Cl, pH 8.5. This mixture was incubated at 37° C. Aliquots were removed over time and the amount of oleic acid released from the POPG substrate was measured by high pressure liquid chromatography (HPLC). The amount of oleic acid released was quantified from the height of the peak at 4.59 min elution time from a C-18 HPLC column, as measured by the absorbance at 207 nm.
# BSA and anti-BSA antibodies were administered to rabbit 6015 and lavage fluids were obtained from rabbit 6015 as described in the previous Example. […] This mixture was incubated for 15 min. at 37° C. before addition of POPG substrate. PLA2 activity was measured using the height of the eluted oleic acid HPLC peak, as described in previous Examples.
# [1] = target: T1, human neutrophil elastase (HNE) (Homo sapiens, UniProt P08246); experiment: Inhibition of HNE by terminal lavage fluid of treated rabbits; assay type: biochemical; details: 0.02 μg HNE with 50 μl terminal lavage fluid of one representative rabbit per group
# T1 sequence (P08246 30-267): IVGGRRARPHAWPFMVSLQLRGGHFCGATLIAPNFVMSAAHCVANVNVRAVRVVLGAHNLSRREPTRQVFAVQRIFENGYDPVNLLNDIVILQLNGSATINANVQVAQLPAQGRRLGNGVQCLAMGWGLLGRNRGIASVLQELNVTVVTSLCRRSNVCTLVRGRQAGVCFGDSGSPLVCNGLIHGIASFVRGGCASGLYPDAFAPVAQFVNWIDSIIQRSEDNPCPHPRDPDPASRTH
# Description: The presence of elastase inhibitor(s) (or the residual activity) in the terminal lavage fluids prepared as described in Example 8) was tested. 0.02 μg of human neutrophil elastase (HNE), was incubated with 50 μl of terminal lavage fluid of one representative rabbit from each experimental group (Groups 1-5). HNE activities are assayed using the colorimetric assay as described in Example 1. The assay results are presented graphically in FIG. 9.
# [2] = tested on: rabbits injured with LPS and PMA; experiment: LPS/PMA-induced pulmonary injury in rabbits (ARDS Rabbit Model), terminal lavage analysis; assay type: in vivo
# Description: The effects of Model surfactant mixture, the serine elastase inhibitor, and the combination of the two on pulmonary inflammation were evaluated on an ARDS Rabbit Model. These experiments are described in details in Examples 8 to 12. Twenty (20) rabbits were divided into five groups for this study. Pulmonary inflammation was induced in Groups 1-4 rabbits from stimulation by lavaging with bacterial lipopolysaccharide (LPS) and, 3 hours later, with phorbol myristate acetate (PMA). Additionally, as treatment, Group 2 rabbits received Model surfactant mixture, Group 3 rabbits received the serine elastase inhibitor, and Group 4 animals received both Model surfactant mixture and the serine elastase inhibitor. Group 5 rabbits were normal rabbits and were used as control. The animals were sacrificed at six (6) hr., the right lower lobe was lavaged three times and the lavage fluids were pooled (terminal lavage) for each animal. The level of injury and the effect of the treatments were measured by the amount of basement membrane protein fragments and red blood cells found in terminal lavage fluids.
# LPS: Minn (List Biological). 5 mg vial. Animals were treated by quantitative lavage leaving 120 μg/kg in 8 ml/kg.
# PMA: (Sigma) diluted in saline or Model surfactant mixture to 5 μg/mL Used 20 ml/kg/rabbit for lavage, leaving 20% of the dosage in the animal.
# Model surfactant mixture: (Discovery Labs) 10 mg/ml. Use 20 ml/kg/rabbit for lavage, leaving 20% of the dosage in the animal.
# Serine Elastase Inhibitor. Elafin (Astra-Zeneca) 3 mg/ml stock, dialyzed against saline to remove azide: 1.3 ml/kg Elafin was administered intravenously at 1.5 hr., 0.33 ml/kg was administered intratracheally (×2 sides) at 3 hr., and 0.66 ml/kg was administered intravenously at 4.5 hr.
# Twenty NZW rabbits are divided into five (5) treatment groups with four (4) animals each. Lung injury is induced by two lavages with LPS in saline and one PMA treatment administered by lavage at 3 hr. Serine elastase inhibitor and Model surfactant mixture were separately and jointly tested to ascertain the degree to which these factors could reduce symptoms of inflammation. Treatments received by the different groups are as follows:
# Group 1: The animals received two lavages with LPS in saline and one PMA treatment administered by lavage at 3 hr. A dosage of ^125I-BSA was given to the animals intravenously at 5.5 hr. and the animals were sacrificed at 6 hr.
# Group 2: The animals received two lavages with LPS in saline, one PMA and Model surfactant mixture treatment administered by lavage at 3 hr. A dosage of ^125I-BSA was given to the animals intravenously at 5.5 hr. and the animals were sacrificed at 6 hr.
# Group 3: The animals received two lavages with LPS in saline and one PMA treatment administered by lavage at 3 hr. […]
# [3] = target: T1, human neutrophil elastase (HNE); experiment: Colorimetric assay of human neutrophil elastase inhibition; assay type: biochemical
# Description: A peptide having the following sequence MeO-Suc-Ala-Ala-Pro-Val-pNA (SEQ ID NO:24) was used as an elastase substrate. One hundred (100) μL of a 0.425 mM solution of the SEQ ID NO:24 peptide substrate was placed in a series of microtiter plate wells. Varying amounts of human neutrophil elastase (HNE) were added to the microtiter plate wells. The optical density at 410 nm (OD410) was used to measure elastase activity, and the optical densities observed were plotted versus the amounts of HNE added to generate a standard curve.
# To test the ability of a serine elastase inhibitor to inhibit human neutrophil elastase (HNE), a standard amount of 0.125 μg HNE was mixed with increasing amounts of a serine elastase inhibitor before addition of the elastase substrate described in Example 3.
# 0.02 μg of human neutrophil elastase (HNE), was incubated with 2 mg/ml of Model surfactant mixture, 100 μg/ml of a serine elastase inhibitor, or both Model surfactant mixture and the serine elastase inhibitor together. The HNE activity remaining was assayed using the calorimetric assay described above. The result is represented graphically in FIG. 8.
# [4] = tested on: elastase activity in rabbit BAL fluids; experiment: Elastase activity in rabbit BAL fluids after addition of serine elastase inhibitor; assay type: biochemical; details: 100 μg/ml inhibitor added to BAL fluids of six anti-BSA/BSA treated rabbits
# Description: Six rabbits were treated with 3 mg anti-BSA/kg (rabbits 6098 and 6099) or 5 mg anti-BSA/kg (rabbits 6100-6103) was instilled intratracheally and 10 mg of BSA was given intravenously (6098-6101) to induce respiratory distress. Bronchoalveolar lavage (BAL) fluids were taken from the lungs of these rabbits six hours after the treatment and a colorimetric assay of elastase activity was performed on these BAL fluids. Elastase activity is expressed as the concentration of HNE that gives a corresponding OD at 410 nm. Additionally, the same assay was performed after the addition of 100 μg/ml of a serine elastase inhibitor to the BAL fluids.
# [5] = tested on: rabbits injured with LPS and PMA; experiment: LPS/PMA lung injury in rabbits treated with anti-oxidant catalase; assay type: in vivo, rabbit; details: for Albumin In BALF / BALF RBCs / Compliance / PaCO2 6 hr / PaO2 4.5 hr / PaO2 6 hr / Wet:Dry weight / Gross Pathology / Histologic Pathology: average ± SEM; for Wet:Dry weight: lung; for Gross Pathology / Histologic Pathology: on a scale of 0–4
# Description: Procedures employed were similar to those used in the foregoing Examples. Lung injury is induced in rabbits (1.0-1.5 kg) by bronchoalveolar lavage (BAL) using 5 μg/ml bacterial LPS in saline at a dosage of 20 ml/kg. At 2.5 hrs after LPS administration, the rabbits received 20 ml/kg phorbol myristate acetate (PMA) by bronchoalveolar lavage. At 2.5 hours after LPS administration, animals in group 1 received the anti-oxidant catalase intratracheally. Animals in group 2 received catalase intratracheally and intravenously. Animals in group 3 received catalase intratracheally and intravenously, as well as 5mg/ml Model Surfactant Mixture (KL4) intratracheally. Animals in group 4 received no further treatment (control). The rabbits were ventilated at PIP […] PEEP 3 cm H2O pressure. The study was terminated at 6 hrs. Values in Tables 6 and 7 are averages+standard error of the mean (SEM).
# [6] = catalase IT & IV (combination: plus 5mg/ml Model Surfactant Mixture IT)
compound,measurement,setting,value
CCc1c(CC(N)=O)c2cc(OCCCP(=O)(O)O)ccc2n1Cc1ccccc1 [LY311727],PLA2 activity (release of oleic acid from POPG),Phospholipase A2 (PLA2),decreasing amounts of PLA2 activity were observed
"Elafin (AQEPVKGPVSTKPGSCPIILIRCAMLNPPNRCLKDTDCPGIKKCCEGSCGMACFVPQ) [serine elastase inhibitor, Elafin (Astra-Zeneca) 3 mg/ml stock, dialyzed against saline]",inhibition of HNE activity by terminal lavage fluid,[1],highly significant
same,number of RBCs in terminal lavage fluid,[2]; 6 hr post LPS/PMA injury,greater reduction in injury
same,amount of protein in terminal lavage fluid,"[2]; 6 hr post LPS/PMA injury, versus injured untreated group","failure of group 3, which received elastase inhibitor alone, to show a reduction in protein levels"
same,"mean protein value in terminal lavage fluid, one aberrant animal excluded","[2]; Group 3, 6 hr post LPS/PMA injury",1.72 mg/mL
same,basement membrane damage (Western blot of basement membrane proteins in BAL fluid),"[2]; terminal lavage fluid, LPS/PMA injured rabbits",Amelioration of the damage in the basement membrane is observed
same,HNE activity remaining,"[3]; 0.02 μg HNE, Model surfactant mixture 2 mg/ml, serine elastase inhibitor 100 μg/ml",Significant inhibition
same,HNE activity (OD410) versus log of amount of inhibitor,"[3]; 0.125 μg HNE, increasing amounts of inhibitor, in vitro",HNE activity is inhibited in vitro
same,Elastase activity in BAL fluids after added inhibitor,[4],"inhibited in five out of the six BAL fluids; also recorded: In all cases, the elastase activity was inhibited"
catalase,lung function (overall),"[5]; LPS/PMA injured rabbits, study terminated at 6 hrs",significantly improve lung function
same,Albumin In BALF,[5]; [6],0.50 ± 0.11
same,BALF RBCs,[5]; [6],2.3 ± 1.2 ×10^3
same,Compliance,[5]; [6],8.4 ± 0.3 ml at 12 cm H2O/Kg
same,PaCO2 6 hr,[5]; [6],36 ± 5
same,PaO2 4.5 hr,[5]; [6],129 ± 19
same,PaO2 6 hr,[5]; [6],124 ± 22
same,Wet:Dry weight,[5]; [6],8.0 ± 0.6
same,Gross Pathology,[5]; [6],1.1 ± 0.4
same,Histologic Pathology,[5]; [6],2.9 ± 0.8
same,Albumin In BALF,[5]; catalase IT,0.65 ± 0.16
same,BALF RBCs,[5]; catalase IT,6.1 ± 3.6 ×10^3
same,Compliance,[5]; catalase IT,10.1 ± 1.8 ml at 12 cm H2O/Kg
same,PaCO2 6 hr,[5]; catalase IT,40 ± 3
same,PaO2 4.5 hr,[5]; catalase IT,128 ± 15
same,PaO2 6 hr,[5]; catalase IT,119 ± 15
same,Wet:Dry weight,[5]; catalase IT,7.4 ± 0.4
same,Gross Pathology,[5]; catalase IT,1.6 ± 0.6
same,Histologic Pathology,[5]; catalase IT,2.7 ± 0.6
